The values that follow are results of earlier work, collected in patent US12102645B2, “Fluticasone furoate nasal preparation composition” (TOKO YAKUHIN KOGYO CO., LTD., priority 2018, dated 2024).

Consider `C[C@@H]1C[C@H]2[C@@H]3C[C@H](F)C4=CC(=O)C=C[C@]4(C)[C@@]3(F)[C@@H](O)C[C@]2(C)[C@@]1(OC(=O)c1ccco1)C(=O)SCF` [Fluticasone furoate, 6α,9-difluoro-17β-[(fluoromethylsulfanyl)carbonyl]-11β-hydroxy-16α-methyl-3-oxoandrosta-1,4-dien-17α-yl furan-2-carboxylate], for which the Solubility in water entry is on record as “very slightly soluble”.
